Assay results: PubChem BioAssay (NCI)
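The compound was tested at five concentrations on cells cultured in 96-well plates, with a 48-hour exposure period. TGI is the concentration that stops growth completely.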

Key:
Assay in all cases: growth of human tumour cells (NCI), 48 h
NCI-H23 lung = system: NCI-H23 lung
EKVX NSCLC = system: EKVX NSCLC
HL-60(TB) leukemia = system: HL-60(TB) leukemia
SR leukemia = system: SR leukemia
CAKI-1 renal = system: CAKI-1 renal
HT29 colon = system: HT29 colon
SF-268 CNS = system: SF-268 CNS
SF-295 CNS = system: SF-295 CNS
SK-MEL-5 melanoma = system: SK-MEL-5 melanoma
MALME-3M melanoma = system: MALME-3M melanoma
HCT-15 colon = system: HCT-15 colon
NCI/ADR-RES ovarian = system: NCI/ADR-RES ovarian
SK-OV-3 ovarian = system: SK-OV-3 ovarian
UACC-62 melanoma = system: UACC-62 melanoma
OVCAR-5 ovarian = system: OVCAR-5 ovarian
HOP-62 NSCLC = system: HOP-62 NSCLC
OVCAR-3 ovarian = system: OVCAR-3 ovarian
SF-539 CNS = system: SF-539 CNS
K-562 leukemia = system: K-562 leukemia
RPMI-8226 leukemia = system: RPMI-8226 leukemia
786-0 renal = system: 786-0 renal
T-47D breast = system: T-47D breast
MCF7 breast = system: MCF7 breast
UO-31 renal = system: UO-31 renal
SK-MEL-28 melanoma = system: SK-MEL-28 melanoma
MDA-N = system: MDA-N
HS 578T breast = system: HS 578T breast
PC-3 prostate = system: PC-3 prostate
BT-549 breast = system: BT-549 breast
IGROV1 ovarian = system: IGROV1 ovarian
SK-MEL-2 melanoma = system: SK-MEL-2 melanoma
ACHN renal = system: ACHN renal
MDA-MB-435 = system: MDA-MB-435
UACC-257 melanoma = system: UACC-257 melanoma
COLO 205 colon = system: COLO 205 colon
LOX IMVI melanoma = system: LOX IMVI melanoma
KM12 colon = system: KM12 colon
HCT-116 colon = system: HCT-116 colon
A498 renal = system: A498 renal
SNB-19 CNS = system: SNB-19 CNS
HCC-2998 colon = system: HCC-2998 colon
MOLT-4 leukemia = system: MOLT-4 leukemia
SW-620 colon = system: SW-620 colon
A549 NSCLC = system: A549 NSCLC
OVCAR-8 ovarian = system: OVCAR-8 ovarian
CCRF-CEM leukemia = system: CCRF-CEM leukemia
M14 melanoma = system: M14 melanoma
SN12C renal = system: SN12C renal
DU-145 prostate = system: DU-145 prostate
MDA-MB-231 breast = system: MDA-MB-231 breast
NCI-H460 lung = system: NCI-H460 lung
OVCAR-4 ovarian = system: OVCAR-4 ovarian
TK-10 renal = system: TK-10 renal
NCI-H226 lung = system: NCI-H226 lung
RXF 393 renal = system: RXF 393 renal
NCI-H522 lung = system: NCI-H522 lung
SNB-75 CNS = system: SNB-75 CNS
U251 CNS = system: U251 CNS
HOP-92 NSCLC = system: HOP-92 NSCLC

Measured: TGI

COc1cc(Br)cc2c1O[C@H]1C(=O)CC3CC21CCN3C (stereo not given in full)
42.7 µM: HL-60(TB) leukemia
46.3 µM: K-562 leukemia
74 µM: T-47D breast
61.6 µM: MOLT-4 leukemia
63.4 µM: RPMI-8226 leukemia
68.2 µM: NCI-H23 lung
71.7 µM: OVCAR-8 ovarian
43.9 µM: CCRF-CEM leukemia
not listed: SN12C renal | DU-145 prostate | MDA-MB-231 breast | NCI-H460 lung | OVCAR-4 ovarian | TK-10 renal | NCI-H226 lung | RXF 393 renal | NCI-H522 lung | SNB-75 CNS | U251 CNS | HOP-92 NSCLC
> 100 µM: all other assays above

CCOC(=O)C(=O)N=Nc1c(O)[nH]c2ccccc12
not listed: HL-60(TB) leukemia | HT29 colon | OVCAR-3 ovarian | SF-539 CNS | HS 578T breast | HOP-92 NSCLC
> 100 µM: all other assays above

C=CC[C@H](O)[C@@](NC(=O)OCc1ccccc1)(Sc1ccc(C)cc1)C(F)(F)F
87.7 µM: CAKI-1 renal
29.7 µM: SF-539 CNS
87.2 µM: MOLT-4 leukemia
16.9 µM: LOX IMVI melanoma
60.9 µM: SR leukemia
47.9 µM: SF-268 CNS
32.7 µM: 786-0 renal
28.4 µM: U251 CNS
78.1 µM: HOP-62 NSCLC
28.9 µM: HL-60(TB) leukemia
53 µM: RXF 393 renal
35.9 µM: NCI-H226 lung
66.7 µM: SF-295 CNS
74.4 µM: M14 melanoma
74.1 µM: UACC-257 melanoma
71.6 µM: RPMI-8226 leukemia
60.5 µM: HCT-116 colon
32.4 µM: NCI-H522 lung
24 µM: IGROV1 ovarian
35.3 µM: OVCAR-8 ovarian
84 µM: MDA-MB-435
59.8 µM: MDA-MB-231 breast
29.4 µM: BT-549 breast
45.8 µM: SN12C renal
48.5 µM: OVCAR-3 ovarian
75.8 µM: SK-MEL-2 melanoma
39.1 µM: COLO 205 colon
70.2 µM: NCI-H23 lung
46.6 µM: MDA-N
82.8 µM: HS 578T breast
55.4 µM: UO-31 renal
75.4 µM: OVCAR-5 ovarian
not listed: SK-OV-3 ovarian | T-47D breast | CCRF-CEM leukemia | SNB-75 CNS
> 100 µM: all other assays above

O=C(O)CSc1nc2ccccc2[nH]1
not listed: HL-60(TB) leukemia | SK-MEL-5 melanoma | SK-OV-3 ovarian | SF-539 CNS | RPMI-8226 leukemia | MCF7 breast | COLO 205 colon | CCRF-CEM leukemia | NCI-H226 lung
> 100 µM: all other assays above
